The data set relates to Swiss-Webster male mice. Briefly: Mouse Activity and Screen Test Procedure (MAST): screen test (ST). The class given is in vivo. The settings on record: one hour postinjection. The text has this:
The compounds of the invention are new chemical substances which are useful as pharmaceutical agents for the treatment of psychoses. The antipsychotic activity of representative compounds of the invention was established by the Mouse Activity and Screen Test Procedrue (MAST) described below.
Nine unfasted Swiss-Webster male mice weighing 20-30 g equally divided into three groups for each drug dose to be tested. That is, data for each dose level was generated by three separated groups of three mice each.
A minimum of three dose levels (10, 30, and 100 mg/kg) are tested for each drug. Treatments are administered intraperitoneally one hour prior to testing. All dosages are calculated as parent compound and given in volumes of 10 ml/kg. Compounds are dissolved or suspended in 0.2% Methocel. Control animals are injected with Methocel.
Testing: A two part testing procedure is started one hour postinjection. First, the screen test (ST) is performed (see Pharmac. Biochem. Behav. 6, 351-353, 1977). Briefly this test consists of placing mice on individual wire screens which are then rotated 180 degrees at the start of a 60 second observation period. The number of mice falling off the inverted screen is recorded.
Data: The data obtained from the screen test are expressed as percent of mice falling off the screen. Data derived from locomotor activity of drug treated mice are compared to the activity of vehicle treated animals and are expressed as percent inhibition of spontaneous locomotion. All percentages reported for inhibition of locomotion (LI) are based upon data accumulated for one hour. Both phases of testing are graded: A=60-100%; G=31-59%; and N=0-30%. An overall dose rating is obtained by the following criteria:
LAD refers to the lowest dose at which an A rating is achieved. […] Utilizing this procedure, an overall dose rating of A was obtained for the noted compound at the indicated dose. The compounds are identified in the Examples.

The results in this text go back to patent EP0179667B1, “N6-substituted adenosines” (priority 1984, dated 1986).

Regarding `COc1ccc2c(c1)C(Nc1ncnc3c1ncn3[C@@H]1O[C@H](CO)[C@@H](O)[C@H]1O)CCC2` (single isomer, unassigned) [Example 8], the Screen test failure runs as follows: (0.3 mg/kg intraperitoneally) 11%; (1 mg/kg intraperitoneally) 11%; (3 mg/kg intraperitoneally) 11%; (10 mg/kg intraperitoneally) 22%; (30 mg/kg intraperitoneally) 65%.

Consider `OC[C@H]1O[C@@H](n2cnc3c(NC4CCCc5ccccc54)ncnc32)[C@H](O)[C@@H]1O` (stereo partly drawn) [Example 2, (R)-N^6-[1-Tetralinyl]-adenosine], for which the Screen test failure was 0% (0.1 mg/kg intraperitoneally); 0% (0.3 mg/kg intraperitoneally); 11% (1 mg/kg intraperitoneally); 22% (3 mg/kg intraperitoneally); 33% (9.0 mg/kg intraperitoneally); 66% (30 mg/kg intraperitoneally).

Turning to `CC1CCc2ccccc2C1Nc1ncnc2c1ncn2[C@@H]1O[C@H](CO)[C@@H](O)[C@H]1O` (stereo partly shown) [Example 4, N^6-[1-(2-Methyl)-tetralinyl]-adenosine], the Screen test failure reads like this: (0.03 mg/kg intraperitoneally) 0%; (0.1 mg/kg intraperitoneally) 0%; (0.3 mg/kg intraperitoneally) 11%; (10 mg/kg intraperitoneally) 77%; (30 mg/kg intraperitoneally) 88%; (100 mg/kg intraperitoneally) 77%.

Turning to `COc1ccc2c(c1)CCCC2Nc1ncnc2c1ncn2[C@@H]1O[C@H](CO)[C@@H](O)[C@H]1O` (stereo partly shown) [Example 6, N^6-[1-(6-Methoxy)-tetralinyl]-adenosine], the Screen test failure was 0% (1 mg/kg intraperitoneally); 0% (3 mg/kg intraperitoneally); 0% (10 mg/kg intraperitoneally); 44% (30 mg/kg intraperitoneally); 44% (100 mg/kg intraperitoneally).

In the case of `COc1cccc2c1CCCC2Nc1ncnc2c1ncn2[C@@H]1O[C@H](CO)[C@@H](O)[C@H]1O` (stereo partly shown) [Example 7, N^6-[5-Methoxy-1-aminotetralin]-adenosine], the Screen test failure is, setting by setting: (0.3 mg/kg intraperitoneally) 0%; (1 mg/kg intraperitoneally) 0%; (3 mg/kg intraperitoneally) 11%; (10 mg/kg intraperitoneally) 22%; (30 mg/kg intraperitoneally) 66%.

`COc1cccc2c1CCC[C@@H]2Nc1ncnc2c1ncn2[C@@H]1O[C@H](CO)[C@@H](O)[C@H]1O` [Example 10, (S)-N^6-[5-methoxy-1-aminotetralin]-adenosine]: the Screen test failure was found to be 11% (0.3 mg/kg intraperitoneally); 22% (1 mg/kg intraperitoneally); 22% (3 mg/kg intraperitoneally); 44% (10 mg/kg intraperitoneally); 66% (30 mg/kg intraperitoneally).

In the case of `CC(=O)Oc1ccccc1C(=O)OC[C@H]1O[C@@H](n2cnc3c(NC4CCCc5ccccc54)ncnc32)[C@H](O)[C@@H]1O` (stereo partly shown) [Example 14, N^6-(1-tetralinyl)-5'-O-(O-acetylsalicoyl)adenosine], the Screen test failure reads like this: (1 mg/kg intraperitoneally) 0%; (3 mg/kg intraperitoneally) 0%; (10 mg/kg intraperitoneally) 0%; (30 mg/kg intraperitoneally) 22%.

In the case of `CC(=O)OC[C@H]1O[C@@H](n2cnc3c(NC4CCCc5ccccc54)ncnc32)[C@H](O)[C@@H]1O` (stereo partly shown) [Example 15, N^6-(1-tetralinyl)-5'-acetyl-adenosine], the Screen test failure reads like this: (0.3 mg/kg intraperitoneally) 11%; (1 mg/kg intraperitoneally) 22%; (3 mg/kg intraperitoneally) 22%; (10 mg/kg intraperitoneally) 55%; (30 mg/kg intraperitoneally) 55%.

As for `OC[C@H]1O[C@@H](n2cnc3c(NC4CCCc5ccc(O)cc54)ncnc32)[C@H](O)[C@@H]1O` (stereo partly shown) [Example 17], the Screen test failure is given as 0% (3 mg/kg intraperitoneally), 0% (10 mg/kg intraperitoneally) and 22% (30 mg/kg intraperitoneally).

For `Cc1cc(C)c2c(c1)C(Nc1ncnc3c1ncn3[C@@H]1O[C@H](CO)[C@@H](O)[C@H]1O)CCC2` (stereo partly shown) [Example 18, N^6-[1-(5,7-dimethyl)-tetralinya]-adenosine], the Screen test failure reads like this: (1 mg/kg intraperitoneally) 11%; (3 mg/kg intraperitoneally) 11%; (10 mg/kg intraperitoneally) 0%; (30 mg/kg intraperitoneally) 0%.

On to `OC[C@H]1O[C@@H](n2cnc3c(NCC4CCc5ccccc54)ncnc32)[C@H](O)[C@@H]1O` (stereo partly shown) [Example 21, N^6-[2,3-dihydro-1H-inden-1-yl]methyladenosine], for which the Screen test failure (0.3 mg/kg intraperitoneally) is 0%; the Screen test failure (1 mg/kg intraperitoneally) is 0%; the Screen test failure (3 mg/kg intraperitoneally) is on record as 0%; the Screen test failure (10 mg/kg intraperitoneally) amounted to 22%; the Screen test failure (30 mg/kg intraperitoneally) is given as 55%.

In the case of `OC[C@H]1O[C@@H](n2cnc3c(NCC4=CCc5ccccc54)ncnc32)[C@H](O)[C@@H]1O` [Example 22, N^6-[1H-inden-3-yl]methyladenosine], the Screen test failure by setting is: (0.1 mg/kg intraperitoneally) 0%; (0.3 mg/kg intraperitoneally) 11%; (1 mg/kg intraperitoneally) 0%; (3 mg/kg intraperitoneally) 22%; (10 mg/kg intraperitoneally) 11%; (30 mg/kg intraperitoneally) 55%.

Consider `OC[C@H]1O[C@@H](n2cnc3c(NCC4(O)CCCc5ccccc54)ncnc32)[C@H](O)[C@@H]1O` (stereo partly shown) [Example 23, N^6-[1-hydroxy-1-tetralinyl]methyl adenosine], for which the Screen test failure reads like this: (3 mg/kg intraperitoneally) 0%; (10 mg/kg intraperitoneally) 0%; (30 mg/kg intraperitoneally) 22%.

For `OC[C@H]1O[C@@H](n2cnc3c(NCC4=CCCc5ccccc54)ncnc32)[C@H](O)[C@@H]1O` [Example 24, N^6-[3,4-dihydro-1-naphthalenyl]methyladenosine], the Screen test failure was found to be 0% (0.3 mg/kg intraperitoneally); 0% (1 mg/kg intraperitoneally); 22% (3 mg/kg intraperitoneally); 22% (10 mg/kg intraperitoneally); 11% (30 mg/kg intraperitoneally).

On to `OC[C@H]1O[C@@H](n2cnc3c(NCC4(O)CCc5ccccc54)ncnc32)[C@H](O)[C@@H]1O` (stereo partly shown) [Example 25, N^6-[2,3-dihydro-1-hydroxy-1H-inden-1-yl]methyladenosine], for which the Screen test failure by setting is: (3 mg/kg intraperitoneally) 11%; (10 mg/kg intraperitoneally) 22%; (30 mg/kg intraperitoneally) 66%.

Consider `OC[C@H]1O[C@@H](n2cnc3c(NCC4=CCCCc5ccccc54)ncnc32)[C@H](O)[C@@H]1O` [Example 26, N^6-(1-benzocycloheptenyl)methyladenosine], for which the Screen test failure by setting is: (3 mg/kg intraperitoneally) 0%; (10 mg/kg intraperitoneally) 22%; (30 mg/kg intraperitoneally) 22%.

For `OC[C@H]1O[C@@H](n2cnc3c(NCC4(O)CCCCc5ccccc54)ncnc32)[C@H](O)[C@@H]1O` (stereo partly shown) [Example 27, N^6-(1-hydroxy-1-benzocycloheptyl]methyladenosine], the Screen test failure turned out to be 0% (3 mg/kg intraperitoneally), 11% (10 mg/kg intraperitoneally) and 0% (30 mg/kg intraperitoneally).

For `OC[C@H]1O[C@@H](n2cnc3c(NCC4CCCCc5ccccc54)ncnc32)[C@H](O)[C@@H]1O` (stereo partly shown) [Example 28, N^6-(1-benzocycloheptyl)methyladenosine], the Screen test failure is 0% (3 mg/kg intraperitoneally), 11% (10 mg/kg intraperitoneally) and 0% (30 mg/kg intraperitoneally).
